Assay results: patent US4751302A, “Indazole derivatives” (priority 1982, dated 1988)

Experiments:
[1] = in vivo; details: mouse, ip, intraperitoneal, hydrochloride, male ddy mice
[2] = system: Carrageenin edema in rat's paw; assay: Carrageenin Edema Test in Rat's Paw (anti-inflammatory activity, Table 1); format: in vivo; details: 100 mg/kg oral, hydrochloride, rat
Description: An anti-inflammatory activity was measured by orally administering 100 mg/kg of a hydrochloride of the indazole derivative of this invention as set forth in Table 1 to an animal in accordance with the standard method of Carrageenin Edema Test in Rat's Paw described in C. A. Winter et al., Proc. Soc. Exp. Biol. Med., 111, 544 (1962).

Oc1ccc2[nH]nc(NCCCN3CCCCCC3)c2c1 [(85), 3-(3-Homopiperidinopropylamino)-5-hydroxyindazole]
LD50 [1]: 135 mg/kg | inhibition in vivo at 100 mg/kg [2]: 35%

CN1CCN(CCCNc2n[nH]c3ccc(O)cc23)CC1 [(86), 3-[3-(4-Methylpiperadino)propylamino]-5-hydroxyindazole]
LD50 [1]: 123 mg/kg | inhibition in vivo at 100 mg/kg [2]: 23%

Oc1ccc2[nH]nc(NCCCN3CCCC3)c2c1 [(87), 3-(3-Pyrrolidinopropylamino)-5-hydroxyindazole]
LD50 [1]: 238 mg/kg | inhibition in vivo at 100 mg/kg [2]: 38%

Oc1ccc2[nH]nc(NCCCN3CCOCC3)c2c1 [(88), 3-(3-Morpholinopropylamino)-5-hydroxyindazole]
LD50 [1]: 346 mg/kg | inhibition in vivo at 100 mg/kg [2]: 46%

CCN(CC)CCCNc1nn(CCCN(CC)CC)c2cccc(Cl)c12 [(89), 1-(3-Diethylaminopropyl)-3-(3-diethylaminopropylamino)-4-chloroindazole]
LD50 [1]: 214 mg/kg | inhibition in vivo at 100 mg/kg [2]: 30%

CCN(CC)CCCNc1nn(CCCN(CC)CC)c2ccc(Cl)cc12 [(90), 1-(3-Diethylaminopropyl)-3-(3-diethylaminopropylamino)-5-chloroindazole]
LD50 [1]: 223 mg/kg | inhibition in vivo at 100 mg/kg [2]: 29%

CCN(CC)CCCNc1nn(CCCN(CC)CC)c2cc(Cl)ccc12 [(91), 1-(3-Diethylaminopropyl)-3-(6-diethylaminopropylamino)-6-chloroindazole]
LD50 [1]: 251 mg/kg | inhibition in vivo at 100 mg/kg [2]: 22%

CCN(CC)CCCNc1nn(CCCN(CC)CC)c2c(Cl)cccc12 [(92), 1-(3-Diethylaminopropyl)-3-(3-diethylaminopropylamino)-7-chloroindazole]
LD50 [1]: 211 mg/kg | inhibition in vivo at 100 mg/kg [2]: 32%

CCN(CC)CCCNc1nn(CCCN(CC)CC)c2ccc(N)cc12 [(93), 1-(3-Diethylaminopropyl)-3-(3-diethylaminopropylamino)-5-aminoindazole]
LD50 [1]: 191 mg/kg | inhibition in vivo at 100 mg/kg [2]: 28%

CCN(CC)CCCNc1nn(CCCN(CC)CC)c2ccc(OC)cc12 [(94), 1-(3-Diethylaminopropyl)-3-(3-diethylaminopropylamino)-5-methoxyindazole]
LD50 [1]: 301 mg/kg | inhibition in vivo at 100 mg/kg [2]: 30%

CCN(CC)CCCNc1nn(CCCN(CC)CC)c2ccc(C)cc12 [(95), 1-(3-Diethylaminopropyl)-3-(3-diethylaminopropylamino)-5-methylindazole]
LD50 [1]: 211 mg/kg | inhibition in vivo at 100 mg/kg [2]: 29%

CCN(CC)CCCn1nc(NCCCN2CCCCC2)c2cc(Cl)ccc21 [(96), 1-(3-Diethylaminopropyl)-3-(3-piperidinopropylamino)-5-chloroindazole]
LD50 [1]: 243 mg/kg | inhibition in vivo at 100 mg/kg [2]: 29%

CCN(CC)CCCn1nc(NCCCCCCN2CCCCC2)c2cc(Cl)ccc21 [(97), 1-(3-Diethylaminopropyl)-3-(6-piperidinohexylamino)-5-chloroindazole]
LD50 [1]: 229 mg/kg | inhibition in vivo at 100 mg/kg [2]: 22%

CCCCN(CCCC)CCCNc1nn(CCCN(CC)CC)c2ccc(Cl)cc12 [(98), 1-(3-Diethylaminopropyl)-3-(3-di-n-butylaminopropylamino)-5-chloroindazole]
LD50 [1]: 286 mg/kg | inhibition in vivo at 100 mg/kg [2]: 32%

CCN(CC)CCCn1nc(NCCC(C)N2CCCCC2)c2cc(Cl)ccc21 (stereo not shown) [(99), 1-(3-Diethylaminopropyl)-3-(3-piperidinobutylamino)-5-chloroindazole]
LD50 [1]: 295 mg/kg | inhibition in vivo at 100 mg/kg [2]: 28%

CCN(CC)CCCNc1nn(CCCN2CCCCC2)c2ccc(Cl)cc12 [(100), 1-(3-Piperidinopropyl)-3-(3-diethylaminopropylamino)-5-chloroindazole]
LD50 [1]: 281 mg/kg | inhibition in vivo at 100 mg/kg [2]: 30%

Clc1ccc2c(c1)c(NCCCN1CCCCC1)nn2CCCN1CCCCC1 [(101), 1-(3-Piperidinopropyl)-3-(3-piperidinopropylamino)-5-chloroindazole]
LD50 [1]: 211 mg/kg | inhibition in vivo at 100 mg/kg [2]: 29%

Clc1ccc2c(c1)c(NCCCCCCN1CCCCC1)nn2CCCN1CCCCC1 [(102), 1-(3-Piperidinopropyl)-3-(6-piperidinohexylamino)-5-chloroindazole]
LD50 [1]: 255 mg/kg | inhibition in vivo at 100 mg/kg [2]: 22%

CC(CCNc1nn(CCCN2CCCCC2)c2ccc(Cl)cc12)N1CCCCC1 (stereo not shown) [(103), 1-(3-Piperidinopropyl)-3-(3-piperidinobutylamino)-5-chloroindazole]
LD50 [1]: 261 mg/kg | inhibition in vivo at 100 mg/kg [2]: 29%

CCN(CC)CCCNc1nn(CCC(C)N2CCCCC2)c2ccc(Cl)cc12 (stereo not shown) [(104), 1-(3-Piperidinobutyl)-3-(3-diethylaminopropylamino)-5-chloroindazole]
LD50 [1]: 277 mg/kg | inhibition in vivo at 100 mg/kg [2]: 30%

CC(CCn1nc(NCCCN2CCCCC2)c2cc(Cl)ccc21)N1CCCCC1 (stereo not shown) [(105), 1-(3-Piperidinobutyl)-3-(3-piperidinopropylamino)-5-chloroindazole]
LD50 [1]: 231 mg/kg | inhibition in vivo at 100 mg/kg [2]: 29%

CC(C)CC(CCNc1nn(CCC(C)N2CCCCC2)c2ccc(Cl)cc12)N1CCCCC1 (stereo not shown) [(106), 1-(3-Piperidinobutyl)-3-(3-piperidino-5-methylhexylamino)-5-chloroindazole]
LD50 [1]: 228 mg/kg | inhibition in vivo at 100 mg/kg [2]: 22%

CC(CCNc1nn(CCC(C)N2CCCCC2)c2ccc(Cl)cc12)N(C)C (stereo not shown) [(107), 1-(3-Piperidinobutyl)-3-(3-dimethylaminobutylamino)-5-chloroindazole]
LD50 [1]: 231 mg/kg | inhibition in vivo at 100 mg/kg [2]: 22%

CCN(CC)CCCNc1nn(CCC(C)N(C)C)c2ccc(Cl)cc12 (stereo not shown) [(108), 1-(3-Dimethylaminobutyl)-3-(3-diethylaminopropylamino)-5-chloroindazole]
LD50 [1]: 118 mg/kg | inhibition in vivo at 100 mg/kg [2]: 30%

CC(CCn1nc(NCCCN2CCCCC2)c2cc(Cl)ccc21)N(C)C (stereo not shown) [(109), 1-(3-Dimethylaminobutyl)-3-(3-piperidinopropylamino)-5-chloroindazole]
LD50 [1]: 387 mg/kg | inhibition in vivo at 100 mg/kg [2]: 29%

CC(CCn1nc(NCCC(C)N2CCCCC2)c2cc(Cl)ccc21)N(C)C (stereo not shown) [(110), 1-(3-Dimethylaminobutyl)-3-(3-piperidinobutylamino)-5-chloroindazole]
LD50 [1]: 293 mg/kg | inhibition in vivo at 100 mg/kg [2]: 28%

CCN(CC)C(CCNc1nn(CCC(C)N(C)C)c2ccc(Cl)cc12)CC(C)C (stereo not shown) [(111), 1-(3-Dimethylaminobutyl)-3-(3-diethylamino-5-methylhexylamino)-5-chloroindazole]
LD50 [1]: 314 mg/kg | inhibition in vivo at 100 mg/kg [2]: 22%

Clc1ccc2c(c1)c(NCCCN1CCCCCC1)nn2CCCN1CCCC1 [(112), 1-(3-Pyrrolidinopropyl)-3-(3-homopiperidinopropylamino)-5-chloroindazole]
LD50 [1]: 325 mg/kg | inhibition in vivo at 100 mg/kg [2]: 29%

CC1CCCCN1CCCNc1nn(CCCN2CCCC2)c2ccc(Cl)cc12 (stereo not shown) [(113), 1-(3-Pyrrolidinopropyl)-3-[3-(2-methylpiperidino)propylamino]-5-chloroindazole]
LD50 [1]: 221 mg/kg | inhibition in vivo at 100 mg/kg [2]: 31%

CN1CCN(CCCNc2nn(CCCN3CCCC3)c3ccc(Cl)cc23)CC1 [(114), 1-(3-Pyrrolidinopropyl)-3-[3-(4-methylpiperazino)propylamino]-5-chloroindazole]
LD50 [1]: 299 mg/kg | inhibition in vivo at 100 mg/kg [2]: 30%

CCN(CC)CCCNc1nn(CCCN2CCOCC2)c2ccc(Cl)cc12 [(115), 1-(3-Morpholinopropyl)-3-(3-diethylaminopropylamino)-5-chloroindazole]
LD50 [1]: 301 mg/kg | inhibition in vivo at 100 mg/kg [2]: 31%

CC1CCCC(C)N1CCCNc1nn(CCCN2CCOCC2)c2ccc(Cl)cc12 (stereo not shown) [(116), 1-(3-Morpholinopropyl)-3-[3-(2,6-dimethylpiperidino)propylamino]-5-chloroindazole]
LD50 [1]: 311 mg/kg | inhibition in vivo at 100 mg/kg [2]: 33%

Clc1ccc2c(c1)c(NCCCN1CCC(Cl)CC1)nn2CCCN1CCOCC1 [(117), 1-(3-Morpholinopropyl)-3-[3-(4-chloropiperidino)propylamino]-5-chloroindazole]
LD50 [1]: 291 mg/kg | inhibition in vivo at 100 mg/kg [2]: 30%

OC1CCN(CCCNc2nn(CCCN3CCOCC3)c3ccc(Cl)cc23)CC1 [(118), 1-(3-Morpholinopropyl)-3-[3-(4-hydroxypiperidino)propylamino]-5-chloroindazole]
LD50 [1]: 287 mg/kg | inhibition in vivo at 100 mg/kg [2]: 31%

CCN(CC)CCCNc1nn(CCCN(CC)CC)c2cccc(O)c12 [(119), 1-(3-Diethylaminopropyl)-3-(3-diethylaminopropylamino)-4-hydroxyindazole]
LD50 [1]: 271 mg/kg | inhibition in vivo at 100 mg/kg [2]: 29%

CCN(CC)CCCNc1nn(CCCN(CC)CC)c2ccc(O)cc12 [(120), 1-(3-Diethylaminopropyl)-3-(3-diethylaminopropylamino)-5-hydroxyindazole]
LD50 [1]: 269 mg/kg | inhibition in vivo at 100 mg/kg [2]: 28%

CCN(CC)CCCNc1nn(CCCN(CC)CC)c2cc(O)ccc12 [(121), 1-(3-Diethylaminopropyl)-3-(3-diethylaminopropylamino)-6-hydroxyindazole]
LD50 [1]: 251 mg/kg | inhibition in vivo at 100 mg/kg [2]: 21%

CCN(CC)CCCNc1nn(CCCN(CC)CC)c2c(O)cccc12 [(122), 1-(3-Diethylaminopropyl)-3-(3-diethylaminopropylamino)-7-hydroxyindazole]
LD50 [1]: 245 mg/kg | inhibition in vivo at 100 mg/kg [2]: 31%

CCN(CC)CCCNc1nn(CCCN(CC)CC)c2ccc(I)cc12 [(123), 1-(3-Diethylaminopropyl)-3-(3-diethylaminopropylamino)-5-iodoindazole]
LD50 [1]: 291 mg/kg | inhibition in vivo at 100 mg/kg [2]: 27%

CCN(CC)CCCNc1nn(CCCN(CC)CC)c2c(I)cccc12 [(124), 1-(3-Diethylaminopropyl)-3-(3-diethylaminopropylamino)-7-iodoindazole]
LD50 [1]: 313 mg/kg | inhibition in vivo at 100 mg/kg [2]: 29%

CCN(CC)CCCNc1nn(CCCN(CC)CC)c2c(N)cc(N)cc12 [(125), 1-(3-Diethylaminopropyl)-3-(3-diethylaminopropylamino)-5,7-diaminoindazole]
LD50 [1]: 320 mg/kg | inhibition in vivo at 100 mg/kg [2]: 28%
